{"source": "paper PMC4449006", "about": "“Targeting KRAS Oncogene in Colon Cancer Cells with 7-Carboxylate Indolo[3,2-b]quinoline Tri-Alkylamine Derivatives” (PLoS ONE, 2015)", "key": {"T-Loop duplex DNA": {"tested_on": "T-Loop duplex DNA", "assay": "FRET melting assay, duplex DNA", "assay_type": "binding", "conditions": "standard deviation < 0.2°C", "method": "The capacity of compounds 1a-d, 2a-d and the standard G4 ligand TMPyP4 (Fig 1) to bind and stabilize KRAS [26] and HSP90A [27] G4 DNA structures as well as duplex DNA (T-loop) was evaluated by a Fluorescence Resonance Energy Transfer (FRET) melting assay. […] It was observed that the basicity of side chains correlates positively with thermal G4 stabilization of all DNA sequences up to an optimal pKa ~ 8.0–9.0 (Fig 2). Heterocyclic amines at the end of alkyl side chain (1b and 2b) appear to improve binding to G4s and complex stabilization compared to the di-ethylamine group (1a and 2a), which cannot be explained by differences in basicity between terminal groups. […] However, this was not observed for the isomeric pair 1a / 2a.\nAll oligonucleotides were purchased from Eurofins MWG Synthesis GmbH, Germany. The labeled oligonucleotides used in the FRET assays had attached the donor fluorophore FAM (6-carboxyfluorescein) and the acceptor fluorophore TAMRA (6-carboxytetramethylrhodamine): KRAS21R (5’-FAM-[…]-TAMRA-3’); HSP90A (5’- [FAM]-[…]-[TAMRA]-3’); T-Loop (5’-FAM-[…]-TAMRA-3’). Each oligonucleotide was initially diluted to a storage solution at 100 μM in nuclease free water (not DEPC-treated), purchased from Ambion Applied Biosystems UK.\nThe ability of IQ3A and TMPyP4 to stabilize G-quadruplex and duplex DNA sequences was investigated using a Fluorescence Resonance Energy Transfer (FRET) assay. Stock solution of the oligonucleotides sequences at 20 μM and subsequent dilutions were obtained from storage solutions diluting with K-cacodylate buffer pH = 7.4, containing 60 mM K^+ (10 mM potassium cacodylate, 50 mM KCl). The FRET probe sequences were diluted from stock to the correct concentration (0.4 μM) and then annealed by heating to 95°C for 10 min, followed by cooling to RT. Test compounds were prepared as 1 mM in 10% DMSO and 10% 1mM HCl in HPLC-grade water. The rest of the dilutions were performed using FRET buffer. Annealed DNA (50 μL) and compound solution (50 μL) were distributed across 96-well RT-PCR plates (BioRad; MJ Research, Waltham, MA, USA). Relevant controls were also performed to check for interference with the assay. Fluorescence readings were made on a DNA Engine Opticon (MJ Research) with excitation at 450–495 nm and detection at 515–545 nm, taken at intervals of 0.5°C in the range 30–100°C, with a constant temperature being maintained for 30 s prior to each reading to ensure a stable value. Experiments were performed in triplicate. Final analysis of the data was carried out with GraphPad Prism 5.0 software (GraphPad Software, Inc). The advanced curve-fitting function in GraphPad Prism was used for calculation of ΔT m values and associated standard deviations."}, "HCT116 cells": {"tested_on": "HCT116 cells", "assay": "Hoechst staining and Guava Nexin assay, HCT116", "assay_type": "cell-based, human", "conditions": "HCT116, 72 h, IC50 concentrations", "method": "To further validate the effect of the IQ3A compounds on the induction of apoptosis in HCT116 cells, apoptosis was ascertained by evaluating changes in nuclear morphology by Hoechst staining, and also by the Nexin assay, following 72 h of incubation with IQ3A compounds at the IC50 concentrations. […] The p53 protein plays a central and pivotal role in human cancers, having a potent tumor suppressive activity via pleiotropic mechanisms. Therefore, the steady-state levels of p53 protein were evaluated by immunoblotting, following 72 h of incubation with IQ3A compounds at the IC50 concentrations, to ascertain their involvement on the mechanism of apoptosis elicited by IQ3A. […] In SW620 cells, no significant increase in p53 steady-state expression was detected, possibly due to the mutant status of p53 (Fig 5A, middle panel). […]\nFig 4 Exposure to IQ3A compounds increases apoptosis in HCT116 cells. […] Results are expressed as the mean percentage (%) of early (LR quadrant) and late (UR quadrant) apoptotic cells.\nThe Nexin Assay distinguishes viable, early and late apoptotic cells based on the externalization of phosphatidylserine to the cell surface, where Annexin V can readily bind them. […]"}}, "data": [{"compound": "CCN(CC)CCOC(=O)c1ccc2c(c1)c1nc3ccccc3c(OCCN(CC)CC)c1n2CCN(CC)CC", "note": "[1a]", "values": [{"measurement": "ΔTm (°C) T-Loop 1 μM", "setting": "T-Loop duplex DNA; 1 μM compound", "value": "<2", "unit": "°C"}, {"measurement": "ΔTm (°C) T-Loop 2 μM", "setting": "T-Loop duplex DNA; 2 μM compound", "value": 3, "unit": "°C"}, {"measurement": "induction of apoptosis", "setting": "HCT116 cells", "value": "marked increase in apoptosis compared to vehicle"}]}]}
